Data taken from patent publication US12227512B2, “Benzimidazoles and methods of using same” (priority 2019, dated 2025).

What was measured:
[1] = test system: MB002 cells; assay: MTT assay, cell proliferation; format: cell-based; details: MB002, read-out: Dose E1
[2] = test system: Gli-luciferace activity in the SUFU-KO-light cells; assay: SUFU-KO-Light assay, inhibition of Gli-luciferase activity; format: cell-based; details: read-out: IC50 (μM) SUFU-KO-Light; inhibition of Gli-luciferase activity; listed as Isis-11 (+isomer/E1)
Text: IC50 SUFO-KO-Light values are for inhibition of Gli-luciferace activity in the SUFU-KO-light cells developed by the James Chen laboratory at Stanford University.

[3] = test system: SARS-CoV-2; details: SARS-CoV-2-infected Vero E6 cells; 6 concentrations, 48 hours; XTT
[4] = Mouse PK evaluation, plasma, IV; details: CD-1 mice; for concentration at 0.083 h / concentration at 0.25 h / concentration at 0.5 h / concentration at 1 h / concentration at 2 h / concentration at 4 h / concentration at 8 h / concentration at 24 h: Plasma concentration; for AUC(0-t): AUClast
[5] = CD-1, mouse, in vivo, 3 mg/kg, Mean, 3 mg/kg IV
[6] = CD-1, mouse, in vivo, 3 mg/kg, Mouse 1, 3 mg/kg IV
[7] = CD-1, mouse, in vivo, 3 mg/kg, Mouse 2, 3 mg/kg IV
[8] = CD-1, mouse, in vivo, 3 mg/kg, Mouse 3, 3 mg/kg IV

Question: For `CN(C)CCCn1c(N)nc2ccc3c(c21)CC(CN(C)C)O3` (single isomer, unassigned) [Compound E1], which IC50 [1] is on record?
Answer: 16.5 µM

Question: And the IC50 [2]?
Answer: 5 µM

Question: And the “effect on viral replication over the tested concentration range” value [3]?
Answer: no effect on viral replication

Question: And the “AUC_%Extrap_obs, Mean” value ([4]; 3 mg/kg IV)?
Answer: 20.8%

Question: And the “AUC_%Extrap_obs, Mouse 1” value ([4]; 3 mg/kg IV)?
Answer: 25.7%

Question: And the “AUC_%Extrap_obs, Mouse 2” value ([4]; 3 mg/kg IV)?
Answer: 20.8%

Question: What about the “AUC_%Extrap_obs, Mouse 3” value ([4]; 3 mg/kg IV) of the same molecule?
Answer: 15.9%

Question: What about the “AUClast/D, Mean” value ([4]; 3 mg/kg IV) of the same molecule?
Answer: 116

Question: What about the “AUClast/D, Mouse 1” value ([4]; 3 mg/kg IV) of the same molecule?
Answer: 107

Question: What about the “AUClast/D, Mouse 2” value ([4]; 3 mg/kg IV) of the same molecule?
Answer: 108

Question: And the “AUClast/D, Mouse 3” value ([4]; 3 mg/kg IV)?
Answer: 132

Question: And the “C0, Mean” value ([4]; 3 mg/kg IV)?
Answer: 664 ng/mL

Question: What about the “C0, Mouse 1” value ([4]; 3 mg/kg IV) of the same molecule?
Answer: 619 ng/mL

Question: And the “C0, Mouse 2” value ([4]; 3 mg/kg IV)?
Answer: 624 ng/mL

Question: What about the “C0, Mouse 3” value ([4]; 3 mg/kg IV) of the same molecule?
Answer: 749 ng/mL

Question: And the “Cl_obs, Mean” value ([4]; 3 mg/kg IV)?
Answer: 115 mL/min/kg

Question: And the “Cl_obs, Mouse 1” value ([4]; 3 mg/kg IV)?
Answer: 116 mL/min/kg

Question: And the “Cl_obs, Mouse 2” value ([4]; 3 mg/kg IV)?
Answer: 122 mL/min/kg

Question: What about the “Cl_obs, Mouse 3” value ([4]; 3 mg/kg IV) of the same molecule?
Answer: 106 mL/min/kg

Question: And the “Vss_obs, Mean” value ([4]; 3 mg/kg IV)?
Answer: 90 L/kg

Question: And the “Vss_obs, Mouse 1” value ([4]; 3 mg/kg IV)?
Answer: 104 L/kg

Question: And the “Vss_obs, Mouse 2” value ([4]; 3 mg/kg IV)?
Answer: 96.2 L/kg

Question: And the “Vss_obs, Mouse 3” value ([4]; 3 mg/kg IV)?
Answer: 68.3 L/kg

Question: And the “Plasma concentration, Mouse 1” value ([4]; 3 mg/kg IV, 0.5 h)?
Answer: 45.5 ng/mL

Question: What about the “Plasma concentration, Mouse 1” value ([4]; 3 mg/kg IV, 1 h) of the same molecule?
Answer: 21.4 ng/mL

Question: What about the “Plasma concentration, Mouse 1” value ([4]; 3 mg/kg IV, 2 h) of the same molecule?
Answer: 13.4 ng/mL

Question: What about the “Plasma concentration, Mouse 1” value ([4]; 3 mg/kg IV, 24 h) of the same molecule?
Answer: 10.0 ng/mL

Question: What about the “Plasma concentration, Mouse 3” value ([4]; 3 mg/kg IV, 24 h) of the same molecule?
Answer: 4.33 ng/mL

Question: What about the concentration at 0.083 h [4, 5] of the same molecule?
Answer: 387 ng/mL

Question: What about the concentration at 0.25 h [4, 5] of the same molecule?
Answer: 131 ng/mL

Question: What about the concentration at 0.5 h ([4]; CD-1, mouse, in vivo, 3 mg/kg, Mean, 3 mg/kg IV, 0.5 h) of the same molecule?
Answer: 59.1 ng/mL

Question: And the concentration at 1 h ([4]; CD-1, mouse, in vivo, 3 mg/kg, Mean, 3 mg/kg IV, 1 h)?
Answer: 42.9 ng/mL

Question: And the concentration at 2 h ([4]; CD-1, mouse, in vivo, 3 mg/kg, Mean, 3 mg/kg IV, 2 h)?
Answer: 17.8 ng/mL

Question: What about the concentration at 4 h [4, 5] of the same molecule?
Answer: 13.5 ng/mL

Question: And the concentration at 8 h [4, 5]?
Answer: 7.3 ng/mL

Question: And the concentration at 24 h ([4]; CD-1, mouse, in vivo, 3 mg/kg, Mean, 3 mg/kg IV, 24 h)?
Answer: 6.1 ng/mL

Question: What about the concentration at 0.083 h [4, 6] of the same molecule?
Answer: 352 ng/mL

Question: What about the concentration at 0.25 h [4, 6] of the same molecule?
Answer: 113 ng/mL

Question: And the concentration at 4 h [4, 6]?
Answer: 13.3 ng/mL

Question: What about the concentration at 8 h [4, 6] of the same molecule?
Answer: 5.5 ng/mL

Question: What about the concentration at 0.083 h [4, 7] of the same molecule?
Answer: 367 ng/mL

Question: What about the concentration at 0.25 h [4, 7] of the same molecule?
Answer: 126 ng/mL

Question: What about the concentration at 0.5 h ([4]; CD-1, mouse, in vivo, 3 mg/kg, Mouse 2, 3 mg/kg IV, 0.5 h) of the same molecule?
Answer: 60.9 ng/mL

Question: And the concentration at 1 h ([4]; CD-1, mouse, in vivo, 3 mg/kg, Mouse 2, 3 mg/kg IV, 1 h)?
Answer: 51.8 ng/mL

Question: And the concentration at 2 h ([4]; CD-1, mouse, in vivo, 3 mg/kg, Mouse 2, 3 mg/kg IV, 2 h)?
Answer: 20.7 ng/mL

Question: And the concentration at 4 h [4, 7]?
Answer: 12.9 ng/mL

Question: What about the concentration at 8 h [4, 7] of the same molecule?
Answer: 6.2 ng/mL

Question: What about the concentration at 24 h ([4]; CD-1, mouse, in vivo, 3 mg/kg, Mouse 2, 3 mg/kg IV, 24 h) of the same molecule?
Answer: 4.11 ng/mL

Question: And the concentration at 0.083 h [4, 8]?
Answer: 443 ng/mL

Question: What about the concentration at 0.25 h [4, 8] of the same molecule?
Answer: 154 ng/mL

Question: And the concentration at 0.5 h ([4]; CD-1, mouse, in vivo, 3 mg/kg, Mouse 3, 3 mg/kg IV, 0.5 h)?
Answer: 71 ng/mL

Question: What about the concentration at 1 h ([4]; CD-1, mouse, in vivo, 3 mg/kg, Mouse 3, 3 mg/kg IV, 1 h) of the same molecule?
Answer: 55.5 ng/mL

Question: And the concentration at 2 h ([4]; CD-1, mouse, in vivo, 3 mg/kg, Mouse 3, 3 mg/kg IV, 2 h)?
Answer: 19.2 ng/mL

Question: What about the concentration at 4 h [4, 8] of the same molecule?
Answer: 14.3 ng/mL

Question: What about the concentration at 8 h [4, 8] of the same molecule?
Answer: 10.2 ng/mL

Question: What about the AUC(0-inf) ([4]; CD-1, mouse, in vivo, iv, 3 mg/kg, AUCInf, Mouse 3, 3 mg/kg IV) of the same molecule?
Answer: 470 ng·h/mL

Question: What about the AUC(0-t) ([4]; CD-1, mouse, in vivo, iv, 3 mg/kg, Mean, 3 mg/kg IV) of the same molecule?
Answer: 347 ng·h/mL

Question: And the AUC(0-t) ([4]; CD-1, mouse, in vivo, iv, 3 mg/kg, Mouse 1, 3 mg/kg IV)?
Answer: 321 ng·h/mL

Question: And the AUC(0-t) ([4]; CD-1, mouse, in vivo, iv, 3 mg/kg, Mouse 2, 3 mg/kg IV)?
Answer: 324 ng·h/mL

Question: What about the AUC(0-t) ([4]; CD-1, mouse, in vivo, iv, 3 mg/kg, Mouse 3, 3 mg/kg IV) of the same molecule?
Answer: 395 ng·h/mL

Question: What about the MRT inf ([4]; CD-1, mouse, in vivo, iv, 3 mg/kg, MRTInf_obs, Mouse 3, 3 mg/kg IV) of the same molecule?
Answer: 10.7 h

Question: What about the half-life ([4]; CD-1, mouse, in vivo, iv, 3 mg/kg, T1/2, Mouse 3, 3 mg/kg IV) of the same molecule?
Answer: 12 h
